According to PubChem BioAssay AID1963854 (Molecular Pharmacology Branch, DTP, NCI, 2024):

Tested on: 186277-243-T-J2-PDC complex spheroid viability
Assay: Anticancer human tumor 186277-243-T-J2-PDC patient-derived colon adenocarcinoma cell line growth inhibition [POLQ]
Conditions: for IC50: curve of first compound; for viability, T/C: stronger effect = lower value
Outline: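 Patient-derived tumour cells were co-cultured with HUVEC and mesenchymal stem cells as multicellular spheroids at 37 °C. They were treated with POLQ inhibitors (novobiocin, ART-558, RP6685) alone or combined with other agents. Top concentrations were at or near clinical Cmax (otherwise 10 microM; SN-38 at 1 microM), decreasing in half-log steps.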

[1] = second compound 0.0316 µM, first compound 0.0316 µM
[2] = second compound 0.0316 µM, first compound 0.1 µM
[3] = second compound 0.0316 µM, first compound 0.316 µM
[4] = second compound 0.0316 µM, first compound 1 µM
[5] = second compound 0.0316 µM, first compound 3.16 µM
[6] = second compound 0.0316 µM, first compound 10 µM
[7] = second compound 0.1 µM, first compound 0.0316 µM
[8] = second compound 0.1 µM, first compound 0.1 µM
[9] = second compound 0.1 µM, first compound 0.316 µM
[10] = second compound 0.1 µM, first compound 1 µM
[11] = second compound 0.1 µM, first compound 3.16 µM
[12] = second compound 0.1 µM, first compound 10 µM
[13] = second compound 0.316 µM, first compound 0.0316 µM
[14] = second compound 0.316 µM, first compound 0.1 µM
[15] = second compound 0.316 µM, first compound 0.316 µM
[16] = second compound 0.316 µM, first compound 1 µM
[17] = second compound 0.316 µM, first compound 3.16 µM
[18] = second compound 0.316 µM, first compound 10 µM
[19] = second compound 1 µM, first compound 0.0316 µM
[20] = second compound 1 µM, first compound 0.1 µM
[21] = second compound 1 µM, first compound 0.316 µM
[22] = second compound 1 µM, first compound 1 µM
[23] = second compound 1 µM, first compound 3.16 µM
[24] = second compound 1 µM, first compound 10 µM
[25] = second compound 3.16 µM, first compound 0.0316 µM
[26] = second compound 3.16 µM, first compound 0.1 µM
[27] = second compound 3.16 µM, first compound 0.316 µM
[28] = second compound 3.16 µM, first compound 1 µM
[29] = second compound 3.16 µM, first compound 3.16 µM
[30] = second compound 3.16 µM, first compound 10 µM
[31] = second compound 10 µM, first compound 0.0316 µM
[32] = second compound 10 µM, first compound 0.1 µM
[33] = second compound 10 µM, first compound 0.316 µM
[34] = second compound 10 µM, first compound 1 µM
[35] = second compound 10 µM, first compound 3.16 µM
[36] = second compound 10 µM, first compound 10 µM
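Further: spheroids exposed to compounds for seven days.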
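Wherever viability, T/C is given: 100% = DMSO vehicle control viability.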

For `COc1cc(C2c3cc4c(cc3C(OC3OC5COC(C)OC5C(O)C3O)C3COC(=O)C23)OCO4)cc(OC)c1O` (centres undefined) + COC1C(OC(N)=O)C(O)C(Oc2ccc3c(O)c(NC(=O)c4ccc(O)c(CC=C(C)C)c4)c(=O)oc3c2C)OC1(C)C, the IC50 (second compound 0.0316 µM) was 0.727 µM, the IC50 (second compound 0.1 µM) was 0.739 µM and the IC50 (second compound 0.316 µM) was 0.659 µM. For the same compound, the IC50 (second compound 1 µM) was 0.662 µM, the IC50 (second compound 3.16 µM) was 0.56 µM and the IC50 (second compound 10 µM) was 0.71 µM. For the same compound, the viability, T/C [1] was 112%, the viability, T/C [2] was 128% and the viability, T/C [3] was 76.6%. For the same compound, the viability, T/C [4] was 40.9%, the viability, T/C [5] was 25.7% and the viability, T/C [6] was 11.6%. For the same compound, the viability, T/C [7] was 98.8%, the viability, T/C [8] was 113% and the viability, T/C [9] was 69.9%. For the same compound, the viability, T/C [10] was 42.1%, the viability, T/C [11] was 27.3% and the viability, T/C [12] was 11.9%. It also gave a viability, T/C [13] of 114%, a viability, T/C [14] of 116% and a viability, T/C [15] of 67.9%. For the same compound, the viability, T/C [16] was 39.7%, the viability, T/C [17] was 24.6% and the viability, T/C [18] was 11.8%. The viability, T/C [19] was 118%, the viability, T/C [20] was 120% and the viability, T/C [21] was 65.3%. For the same compound, the viability, T/C [22] was 42.3%, the viability, T/C [23] was 25.5% and the viability, T/C [24] was 12.4%. For the same compound, the viability, T/C [25] was 113%, the viability, T/C [26] was 124% and the viability, T/C [27] was 65.1%. It also gave a viability, T/C [28] of 37.6%, a viability, T/C [29] of 25.3% and a viability, T/C [30] of 11.3%. For the same compound, the viability, T/C [31] was 120%, the viability, T/C [32] was 110% and the viability, T/C [33] was 69.6%. For the same compound, the viability, T/C [34] was 40.3%, the viability, T/C [35] was 26.8% and the viability, T/C [36] was 11.8%.
`CC1COCCN1c1cc(-c2ccnn2C)c2ccnc(-c3ccn[nH]3)c2n1` (centres undefined) + Cc1cccc(N(C)C(=O)C2C(O)CCN2c2nc(C)cc(C(F)(F)F)c2C#N)c1 gave an IC50 (second compound 0.0316 µM) of 0.0415 µM, an IC50 (second compound 0.1 µM) of 0.0468 µM and an IC50 (second compound 0.316 µM) of 0.0504 µM. It also gave an IC50 (second compound 1 µM) of 0.0489 µM, an IC50 (second compound 3.16 µM) of 0.0468 µM and an IC50 (second compound 10 µM) of 0.0417 µM. It also gave a viability, T/C [1] of 61.5%, a viability, T/C [2] of 13% and a viability, T/C [3] of 5%. It also gave a viability, T/C [4] of 4.41%, a viability, T/C [5] of 4.26% and a viability, T/C [6] of 4.75%. It also gave a viability, T/C [7] of 69.2%, a viability, T/C [8] of 12.7% and a viability, T/C [9] of 5.72%. It also gave a viability, T/C [10] of 4.22%, a viability, T/C [11] of 3.97% and a viability, T/C [12] of 4.43%. The viability, T/C [13] was 74.4%, the viability, T/C [14] was 14.2% and the viability, T/C [15] was 5.49%. It also gave a viability, T/C [16] of 4.49%, a viability, T/C [17] of 3.63% and a viability, T/C [18] of 4.89%. It also gave a viability, T/C [19] of 72.3%, a viability, T/C [20] of 13.7% and a viability, T/C [21] of 6.05%. For the same compound, the viability, T/C [22] was 4.53%, the viability, T/C [23] was 4.55% and the viability, T/C [24] was 5.17%. It also gave a viability, T/C [25] of 68.1%, a viability, T/C [26] of 15.1% and a viability, T/C [27] of 5.47%. For the same compound, the viability, T/C [28] was 4.21%, the viability, T/C [29] was 4.54% and the viability, T/C [30] was 4.6%. For the same compound, the viability, T/C [31] was 62.2%, the viability, T/C [32] was 11.4% and the viability, T/C [33] was 4.96%. For the same compound, the viability, T/C [34] was 3.76%, the viability, T/C [35] was 5.16% and the viability, T/C [36] was 4.53%.
